The source of these data is US20250144036A1, “COMPOUNDS AND COMPOSITIONS FOR DELIVERY OF THERAPEUTIC AGENTS” (ModernaTX, Inc., priority 2021, published 2025).

SMILES strings stand for the structures.

Assay [1] has as its system endothelial cells. In words: Expression of mOX40L in endothelial cells following intravenous administration of loaded LNPs (flow cytometry of lung cells). In kind it is in vivo, mice (Ail4). To be noted: ionizable lipid/PEG lipid VI-4/PEG-DMG, 30 mol % cationic lipid or none, i.v., 24 h after dose. On the procedure: (§1) Reagents: Digestion Media: 3 mg/mL collagenase 1, 0.1 mg/mL DNase I, Dulbecco's Modified Eagle Medium (DMEM); Wash solution: Dulbecco's phosphate-buffered saline (DPBS)+0.5% Bovine Serum Albumin (BSA); FACS Buffer: Flow Cytometry Staining Buffer (eBioscience™, ThermoFisher Scientific).
(§2) • CD31: General Endothelial Marker; • CD45: Leukocyte Common Marker; • mOX40L: Transmembrane Reporter; • tdTomato: Fluorescence Protein Reporter from Cre-mediated recombination in Ail4 mice.
(§3) Six-week-old female mice (Ail4) were aged in-house to approximately 7-8 weeks of age. With an n=5 per group, Cre mRNA (i.e., mRNA leading to expression of tdTomato) formulated LNPs were intravenously dosed via the lateral tail vein 8 days before harvest. […] Collected data was analyzed using flow cytometry analysis software (FlowJo™).
(§4) To assess the delivery of a therapeutic agent comprised in loaded LNPs of the disclosure to endothelial cells, the expression of Cre and mOX40L mRNA encapsulated in loaded LNPs of the disclosure was measured in endothelial cells following administration of the loaded LNPs to Ail4 mice as described in Example 3. […] The expression was evaluated in LNPs comprising 30 mol % of a cationic lipid of Formula (I) and in loaded LNPs not comprising the cationic of Formula (I) (i.e., LNPs not comprising a cationic lipid, or LNPs comprising dioleoyl-3-trimethylammonium propane (DOTAP)).

Assay [2] has as its system endothelial cells. Put plainly: Expression of tdTomato (Cre mRNA) in endothelial cells following intravenous administration of loaded LNPs (flow cytometry of lung cells). To be noted: ionizable lipid/PEG lipid VI-4/PEG-DMG, 30 mol % cationic lipid or none, i.v., 8 days before harvest. Type of assay: in vivo, mice (Ail4). As to the method:
as §1, §2, §3, §4

Take `CCCCCCCC/C=C\CCCCCCCC(=O)OCC(C[N+](C)(C)C)OC(=O)CCCCCCC/C=C\CCCCCCCC` (centres unmarked) [DOTAP, dioleoyl-3-trimethylammonium propane]: the “% Endothelial cells Average” value with endothelial cells [1] and in the assay on endothelial cells [2] was 0% in each case.
